Data as given in US9790188B2, “Benzimidazole derivatives and uses thereof” (Whitehead Institute for Biomedical Research, priority 2013, dated 2017).

What was measured:
WT yeast = experiment: Viable cells recovered after prolonged treatment at growth inhibitory concentrations
Nedd4 = biological target: T1, Nedd4 (Homo sapiens, UniProt P46934); conditions: pers. comm.; cited from earlier work
T1 sequence (P46934 1-1319): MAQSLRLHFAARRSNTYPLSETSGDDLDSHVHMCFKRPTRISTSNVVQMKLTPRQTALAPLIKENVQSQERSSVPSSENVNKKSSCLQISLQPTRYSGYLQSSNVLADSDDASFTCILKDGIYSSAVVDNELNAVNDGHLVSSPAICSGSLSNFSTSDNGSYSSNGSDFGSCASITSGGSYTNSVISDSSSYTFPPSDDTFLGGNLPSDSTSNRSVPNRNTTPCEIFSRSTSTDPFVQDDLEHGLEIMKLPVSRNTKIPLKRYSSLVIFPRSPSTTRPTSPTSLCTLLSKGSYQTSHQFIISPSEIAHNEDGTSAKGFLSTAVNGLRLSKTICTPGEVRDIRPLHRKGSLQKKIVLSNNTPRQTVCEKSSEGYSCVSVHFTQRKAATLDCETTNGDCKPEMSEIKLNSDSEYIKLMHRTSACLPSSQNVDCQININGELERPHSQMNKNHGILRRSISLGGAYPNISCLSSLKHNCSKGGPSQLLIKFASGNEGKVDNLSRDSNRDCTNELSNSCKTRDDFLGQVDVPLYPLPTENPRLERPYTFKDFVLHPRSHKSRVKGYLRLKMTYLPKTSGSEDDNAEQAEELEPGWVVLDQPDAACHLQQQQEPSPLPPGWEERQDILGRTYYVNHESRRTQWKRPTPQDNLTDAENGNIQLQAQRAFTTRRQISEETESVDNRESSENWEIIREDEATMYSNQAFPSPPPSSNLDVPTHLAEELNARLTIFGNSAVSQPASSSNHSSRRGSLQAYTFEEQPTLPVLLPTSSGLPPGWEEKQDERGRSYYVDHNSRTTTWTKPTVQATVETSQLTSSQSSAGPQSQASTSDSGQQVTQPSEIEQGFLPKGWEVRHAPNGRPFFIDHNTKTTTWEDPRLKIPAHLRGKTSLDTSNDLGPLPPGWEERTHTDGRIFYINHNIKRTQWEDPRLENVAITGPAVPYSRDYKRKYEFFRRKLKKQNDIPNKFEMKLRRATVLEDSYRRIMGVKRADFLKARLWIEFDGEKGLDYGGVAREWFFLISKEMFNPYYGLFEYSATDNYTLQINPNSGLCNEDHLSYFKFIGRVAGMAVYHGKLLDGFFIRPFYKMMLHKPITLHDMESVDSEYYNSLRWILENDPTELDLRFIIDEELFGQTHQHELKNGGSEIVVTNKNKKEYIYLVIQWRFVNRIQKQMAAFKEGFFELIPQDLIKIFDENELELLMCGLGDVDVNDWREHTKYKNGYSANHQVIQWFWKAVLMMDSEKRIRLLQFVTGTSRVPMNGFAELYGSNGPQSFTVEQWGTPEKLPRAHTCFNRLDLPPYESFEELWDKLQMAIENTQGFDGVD

[1] = tested on: dopaminergic (DA) neurons; experiment: C. elegans model of α-syn toxicity; format: in vivo; conditions: nematodes expressing α-syn and GFP in DA neurons
Experimental: Drug treatments of the C. elegans α-syn model were performed as previously described (6). Briefly, age-synchronized worms were obtained by treating gravid adults with 2% sodium hyopchlorite and 0.5M NaOH to isolate embryos (36). Variable concentrations of ABI1 or 0.2% DMSO was applied to embryos suspended in M9 buffer (22 mM KH2PO4, […], 85 mM NaCl, 1 mM MgSO4) (time 0), and incubated at 25 C for 24 hours to obtain a synchronized L1 population. Worms were washed three times in distilled water and one additional rinse in M9 buffer. The synchronized L1 worms were plated on regular nematode growth media (NGM) plates seeded with 100 uL of Eschericia coli (OP50). Worms were then transferred every other day to new plates to insure food abundance and eliminate progeny contamination. Worms were then analyzed seven days post-hatching. Analyses were carried out according to the criteria previously described (37). In each case, ˜30-40 animals were scored for the percent of WT animals. Experiments were completed in triplicate and averages calculated. A one-way ANOVA and Tukey's test was used to determine significance.

TDP-43 = experiment: Yeast growth rescue screen, cells expressing TDP-43; format: cell-based; conditions: yeast expressing TDP-43
Description: Thus, rescue was not targeted to a common feature of misfolded protein toxicity, but rather reflected the ability of ABI to target specific pathologies related to α-syn (and to a lesser degree TDP-43).
Yeast strains expressing toxic proteins have been described previously (6, 9, 33, 34) (Table 1). All strains have either single or multiple inserts for galactose-inducible expression. In addition, all stains have either deletions of the Δpdr1::KanMX and Δpdr3::KanMX or Δpdr5::KanMX to reduce efflux of compounds and required compound dosing. Yeast were cultured in complete synthetic media (CSM) and an appropriate dropout (minus HIS or URA) to maintain plasmids if required. For galactose-induction experiments, overnight cultures were grown in CSM/2% glucose to saturation and diluted 1:20 into CSM/2% raffinose for ˜2 generations. Cultures were then diluted into CSM/2% galactose at an optimum OD600 for the experiment (see ‘Growth assays’).
Starting cultures for all dose-response assays were established as described above. All growth assays were carried out in 384 well-format. Source plates were assembled in 96 well plates using multichannel pipettes to dilute rows in 1.6-fold serial dilutions of CSMGal. […] Plates were then read with a Tecan Saphire plate reader at OD600. […]

## Cc1cccc(-n2cnc3cc(C(=O)NCc4ccccc4Cl)ccc32)c1 [ABI, N-(2-chlorobenzyl)-1-(m-tolyl)-1H-benzo[d]imidazole-5-carboxamide]
WT yeast
  viability of cells: retained full viability
Nedd4
  ubiquitination of recombinant Nedd4 in vitro: did not enhance ubiquitination
[1]
  rescue of DA neurons from α-syn toxicity: partial, yet highly significant, rescue
TDP-43
  efficacy against TDP-43 (restoration of growth): modest efficacy
